# Results taken from patent US9802899B2, “Heterocyclic compounds as pesticides” (BAYER CROPSCIENCE AG, priority 2012, dated 2017).
# Assay: Determination of the log P values by HPLC (formic acid method)
# Type: physicochemical
# Conditions: reversed-phase HPLC column (C 18), reversed-phase column (C 18), acidic range (pH 3.4), 55° C.
# Description: 1) Description of Method for Determination of the Log P Values (Formic Acid Method)
# Eluents for determination in the acidic range (pH 3.4):
# Eluent A: acetonitrile+1 ml of formic acid/liter. Eluent B: water+0.9 ml of formic acid/liter.
# The lambda max values were determined in the maxima of the chromatographic signals using the UV spectra from 200 nm to 400 nm.
row,chromatographic logP,SMILES
1,1.97,"Nc1ccn(-c2cccc(Cl)c2Cl)n1 [1-(2,3-Dichlorophenyl)-1H-pyrazole-3-amine]"
2,1.56,"Nc1ccn(-c2cccc(F)c2F)n1 [1-(2,3-Difluorophenyl)-1H-pyrazole-3-amine]"
3,1.5,"Cc1nc(F)c(-n2ccc(N)n2)cc1F [1-(2,5-Difluoro-6-methylpyridin-3-yl)-1H-pyrazole-3-amine]"
4,1.58,"Nc1ccn(-c2cc(F)ccc2F)n1 [1-(2,5-Difluorophenyl)-1H-pyrazole-3-amine]"
5,1.15,"Nc1ccn(-c2cc(F)cnc2F)n1 [1-(2,5-difluoropyridin-3-yl)-1H-pyrazole-3-amine]"
6,1.47,"Nc1ccn(-c2c(Cl)cccc2Cl)n1 [1-(2,6-Dichlorophenyl)-1H-pyrazole-3-amine]"
7,0.62,"Cc1cccc(C)c1-n1ccc(N)n1 [1-(2,6-Dimethylphenyl)-1H-pyrazole-3-amine]"
8,1.85,Cc1ccc(-n2ccc(N)n2)c(Cl)c1 [1-(2-Chloro-4-methylphenyl)-1H-pyrazole-3-amine]
9,2.13,CCOc1cccc(Cl)c1-n1ccc(N)n1 [1-(2-Chloro-6-ethoxyphenyl)-1H-pyrazole-3-amine]
10,2.32,Nc1nn(-c2ccccc2Cl)c2ccccc12 [1-(2-Chlorophenyl)-1H-indazole-3-amine]
11,0.62,Nc1ccn(-c2cccnc2Cl)n1 [1-(2-Chloropyridin-3-yl)-1H-pyrazole-3-amine]
12,1.47,CCOc1cccc(F)c1-n1ccc(N)n1 [1-(2-Ethoxy-6-fluorophenyl)-1H-pyrazole-3-amine]
13,2.04,CCOc1c(F)cccc1-n1ccc(N)n1 [1-(2-ethoxy-3-fluorophenyl)-1H-pyrazole-3-amine]
14,1.15,"Nc1ccn(-c2nc(F)c(F)cc2F)n1 [1-(3,5,6-Trifluoropyridin-2-yl)-1H-pyrazole-3-amine]"
15,1.25,"Cc1nc(-n2ccc(N)n2)c(F)cc1F [1-(3,5-Difluoro-6-methylpyridin-2-yl)-1H-pyrazole-3-amine]"
16,2.09,"Nc1nn(-c2ncc(F)cc2F)c2ccc(F)cc12 [1-(3,5-Difluoropyridin-2-yl)-5-fluoro-1H-indazole-3-amine]"
17,2.13,CCOc1c(Cl)cccc1-n1ccc(N)n1 [1-(3-Chloro-2-ethoxyphenyl)-1H-pyrazole-3-amine]

row,chromatographic logP,SMILES
1,1.9,Nc1ccn(-c2cccc(Cl)c2F)n1 [1-(3-Chloro-2-fluorophenyl)-1H-pyrazole-3-amine]
2,0.98,Nc1ccn(-c2ncc(F)cc2Cl)n1 [1-(3-Chloro-5-fluoropyridin-2-yl)-1H-pyrazole-3-amine]
3,1.38,Nc1ccn(-c2nccc(I)c2F)n1 [1-(3-Fluoro-4-iodopyridin-2-yl)-1H-pyrazole-3-amine]
4,0.49,Nc1ccn(-c2nccnc2F)n1 [1-(3-Fluoropyrazin-2-yl)-1H-pyrazole-3-amine]
5,0.86,"Nc1ccn(-c2ncnc(F)c2F)n1 [1-(5,6-Difluoropyrimidin-4-yl)-1H-pyrazole-3-amine]"
6,1.27,Nc1ccn(-c2ncc(Cl)cc2F)n1 [1-(5-Chloro-3-fluoropyridin-2-yl)-1H-pyrazole-3-amine]
7,0.9,Nc1ccn(-c2cncc(F)n2)n1 [1-(6-Fluoropyrazin-2-yl)-1H-pyrazole-3-amine]
8,1.38,"Nc1cnn(-c2ncc(Cl)cc2Cl)n1 [2-(3,5-Dichloropyridin-2-yl)-2H-1,2,3-triazole-4-amine]"
9,0.4,"Nc1cnn(-c2ncccc2F)n1 [2-(3-Fluoropyridin-2-yl)-2H-1,2,3-triazole-4-amine]"
10,1.74,"Nc1cnn(-c2ncc(C(F)(F)F)cc2Cl)n1 [2-[3-Chloro-5-(trifluoromethyl)pyridin-2-yl]-2H-1,2,3-triazole-4-amine]"
11,1.53,"Nc1cnn(-c2ccc(C(F)(F)F)cn2)n1 [2-[5-(Trifluoromethyl)pyridin-2-yl]-2H-1,2,3-triazole-4-amine]"
12,1.85,"O=C(O)c1ccccc1C(=O)Nc1ccn(-c2c(F)cc([N+](=O)[O-])cc2F)n1 [2-{[1-(2,6-Difluoro-4-nitrophenyl)-1H-pyrazol-3-yl]carbamoyl}benzoic acid]"
13,0.59,N#Cc1cncnc1-n1ccc(N)n1 [4-(3-Amino-1H-pyrazol-1-yl)pyrimidine-5-carbonitrile]
14,2.23,Nc1nn(-c2ccccc2Cl)cc1Br [4-Bromo-1-(2-chlorophenyl)-1H-pyrazole-3-amine]
15,2.14,Nc1nn(-c2ccccc2Cl)cc1Cl [4-Chloro-1-(2-chlorophenyl)-1H-pyrazole-3-amine]
16,2.36,Nc1nn(-c2ccccc2Cl)cc1I [4-Iodo-1-(2-chlorophenyl)-1H-pyrazole-3-amine]
17,2.7,"O=C(Nc1nn(-c2ccccc2Cl)cc1F)c1ccccc1Cl [Compound I-1-27, 2-Chloro-N-[1-(2-chlorophenyl)-4-fluoro-1H-pyrazol-3-yl]benzamide]"

# Same assay, conditions: reversed-phase column (C 18), acidic range (pH 3.4), 55° C.
log P,SMILES,chromatographic logP
–,"Nc1ccn(-c2c(F)cccc2F)n1 [1-(2,6-Difluorophenyl)-1H-pyrazole-3-amine]",1.13
–,"Nc1ccn(-c2ncc(F)cc2F)n1 [1-(3,5-Difluoropyridin-2-yl)-1H-pyrazole-3-amine]",0.81
2.69,COc1ccccc1-n1ccc(NC(=O)c2ccccc2Br)n1 [Compound I-1-2],–
2.87,COc1ccccc1-n1ccc(NC(=O)c2cc(C)oc2C)n1 [Compound I-1-3],–
2.92,O=C(Nc1ccn(-c2ccccc2C(F)(F)F)n1)c1ccccc1Cl [Compound I-1-4],–
2.75,O=C(Nc1ccn(-c2ccccc2C(F)(F)F)n1)c1ccccc1C(F)(F)F [Compound I-1-6],–
3.05,O=C(Nc1ccn(-c2ccccc2C(F)(F)F)n1)c1ccnn1C(F)F [Compound I-1-7],–
2.38,N#Cc1ccccc1-n1ccc(NC(=O)c2ccccc2Cl)n1 [Compound I-1-8],–
2.55,N#Cc1ccccc1-n1ccc(NC(=O)c2ccccc2C(F)(F)F)n1 [Compound I-1-9],–
2.86,Cc1ccccc1C(=O)Nc1ccn(-c2ccccc2Cl)n1 [Compound I-1-11],–
3.30,CCc1ccccc1C(=O)Nc1ccn(-c2ccccc2Cl)n1 [Compound I-1-12],–
3.03,O=C(Nc1ccn(-c2ccccc2Cl)n1)c1ccccc1C(F)F [Compound I-1-13],–
2.96,O=C(Nc1ccn(-c2ccccc2Cl)n1)c1ccccc1C(F)(F)F [Compound I-1-14],–
2.89,O=C(Nc1ccn(-c2ccccc2Cl)n1)c1ccccc1F [Compound I-1-19],–
3.25,C#CCN(C(=O)c1ccccc1Cl)c1ccn(-c2ccccc2Cl)n1 [Compound I-1-23],–
3.85,O=C(c1ccccc1Cl)N(CC1CC1)c1ccn(-c2ccccc2Cl)n1 [Compound I-1-24],–
3.56,C=CCN(C(=O)c1ccccc1Cl)c1ccn(-c2ccccc2Cl)n1 [Compound I-1-26],–
2.88,O=C(Nc1nn(-c2ccccc2Cl)cc1Cl)c1ccccc1Cl [Compound I-1-28],–
3.01,O=C(Nc1nn(-c2ccccc2Cl)cc1I)c1ccccc1Cl [Compound I-1-30],–
2.45,Cc1cc(NC(=O)c2ccccc2Cl)nn1-c1ccccc1Cl [Compound I-1-31],–
2.65,O=C(Nc1ccn(-c2ccccc2Cl)n1)c1c(F)cccc1F [Compound I-1-36],–

log P,SMILES,chromatographic logP
3.24,Cc1cccnc1C(=O)Nc1ccn(-c2ccccc2Cl)n1 [Compound I-1-38],–
2.79,O=C(Nc1ccn(-c2ccccc2Cl)n1)c1ncccc1Cl [Compound I-1-40],–
1.44,Cc1ncccc1C(=O)Nc1ccn(-c2ccccc2Cl)n1 [Compound I-1-41],–
2.48,O=C(Nc1ccn(-c2ccccc2Cl)n1)c1cccnc1C(F)(F)F [Compound I-1-42],–
2.74,O=C(Nc1ccn(-c2ccccc2Cl)n1)c1nccnc1C(F)(F)F [Compound I-1-44],–
3.05,Cc1cc(C(=O)Nc2ccn(-c3ccccc3Cl)n2)c(C)o1 [Compound I-1-45],–
2.96,Cc1ccsc1C(=O)Nc1ccn(-c2ccccc2Cl)n1 [Compound I-1-46],–
3.05,O=C(Nc1ccn(-c2ccccc2Cl)n1)c1ccsc1I [Compound I-1-47],–
2.59,Cn1nc(C(F)F)c(C(=O)Nc2ccn(-c3ccccc3Cl)n2)c1F [Compound I-1-49],–
3.07,O=C(Nc1ccn(-c2ccccc2Br)n1)c1ccccc1C(F)(F)F [Compound I-1-50],–
2.86,O=C(Nc1ccn(-c2ccccc2Br)n1)c1ccccc1Br [Compound I-1-52],–
2.99,O=C(Nc1ccn(-c2ccccc2Br)n1)c1ncccc1C(F)(F)F [Compound I-1-54],–
2.54,O=C(Nc1ccn(-c2ccccc2Br)n1)c1cccnc1C(F)(F)F [Compound I-1-56],–
2.37,O=C(Nc1ccn(-c2ccccc2Br)n1)c1cccnc1Cl [Compound I-1-57],–
2.63,Cn1nc(C(F)F)c(C(=O)Nc2ccn(-c3ccccc3Br)n2)c1F [Compound I-1-58],–
3.00,Cn1nc(C(F)(F)F)c(C(=O)Nc2ccn(-c3ccccc3Br)n2)c1F [Compound I-1-59],–
3.16,Cc1ccsc1C(=O)Nc1ccn(-c2ccccc2Br)n1 [Compound I-1-60],–
3.07,O=C(Nc1ccn(-c2cccc(F)c2F)n1)c1ccccc1C(F)(F)F [Compound I-1-62],–
3.02,O=C(Nc1ccn(-c2cccc(F)c2F)n1)c1ccccc1C(F)(F)F [Compound I-1-64],–
3.13,O=C(Nc1ccn(-c2cccc(F)c2F)n1)c1ccccc1C(F)(F)F [Compound I-1-65],–
